From patent US20250230193A1, “CYCLIC COMPOUND HAVING SELECTIVE KRAS INHIBITORY EFFECT ON HRAS AND NRAS” (CHUGAI SEIYAKU KABUSHIKI KAISHA, priority 2022, published 2025)

Key:
[1] = target: GDP-bound NRAS wild-type protein (Homo sapiens, UniProt P01111); assay: Binding to NRAS by surface plasmon resonance (SPR), Single Cycle Kinetics; conditions: SPR; KD ratio class
[2] = target: GDP-bound HRAS wild-type protein (Homo sapiens, UniProt P01112); assay: Binding to HRAS by surface plasmon resonance (SPR), Single Cycle Kinetics; conditions: SPR; KD ratio class
Chain of GDP-bound HRAS wild-type protein (P01112 whole entry): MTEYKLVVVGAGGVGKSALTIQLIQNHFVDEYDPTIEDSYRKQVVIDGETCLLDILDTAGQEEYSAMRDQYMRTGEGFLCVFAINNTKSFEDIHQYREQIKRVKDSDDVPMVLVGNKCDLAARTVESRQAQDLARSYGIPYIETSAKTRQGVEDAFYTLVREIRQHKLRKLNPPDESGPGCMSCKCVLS

[3] = system: human lung cancer strain NCI-H441; assay: cells; conditions: NCI-H441, 96 h, read-out: NCI-H441 IC50 (nM)

Chain of GDP-bound NRAS wild-type protein (P01111 whole entry): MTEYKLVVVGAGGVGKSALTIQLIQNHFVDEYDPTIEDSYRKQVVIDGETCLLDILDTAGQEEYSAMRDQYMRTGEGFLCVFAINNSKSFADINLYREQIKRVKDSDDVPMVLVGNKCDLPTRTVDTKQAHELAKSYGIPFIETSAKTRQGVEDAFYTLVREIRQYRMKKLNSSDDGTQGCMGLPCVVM

Structure (SMILES)	NRAS/KRAS (ratio of KD value for GDP-bound NRAS wild-type protein to KD value for KRAS) [1]	HRAS/KRAS (ratio of KD value for GDP-bound HRAS wild-type protein to KD value for KRAS) [2]	IC50 [3] [nM]
CCO[C@@H]1C[C@H]2C(=O)NC3(CCC3)C(=O)N(C)[C@@H](C3CCCC3)C(=O)N(C)[C@H](C(=O)N(C)C)CC(=O)N(C)[C@@H](CC)C(=O)N[C@@H]([C@@H](C)CC)C(=O)N(C)CC(=O)N(C)[C@H]3C/C=C\CCN(C3=O)[C@@H](Cc3ccc(C(F)(F)F)cc3)C(=O)N(C)CC(=O)N[C@@H](CCc3ccc(C(F)(F)F)c(C)c3)C(=O)N2C1 [PP1265]	A (a compound having 10 or more and less than 20 is denoted as A)	B (a compound having 3 or more and less than 10 is denoted as B)	14.1
CCO[C@@H]1C[C@H]2C(=O)NC3(CCC3)C(=O)N(C)[C@@H](C3CCCC3)C(=O)N(C)[C@H](C(=O)N(C)C)CC(=O)N(C)[C@@H](CC)C(=O)N[C@@H](C(C)C)C(=O)N(C)CC(=O)N(C)[C@H]3C/C=C\CCN(C3=O)[C@@H](Cc3ccc(C(F)(F)F)cc3)C(=O)N(C)CC(=O)N[C@@H](CCc3cc(F)c(C(F)(F)F)c(F)c3)C(=O)N2C1 [PP1270]	A (a compound having 10 or more and less than 20 is denoted as A)	B (a compound having 3 or more and less than 10 is denoted as B)	53.5
CCO[C@@H]1C[C@H]2C(=O)NC3(CCCCC3)C(=O)N(C)[C@@H](C3CCCC3)C(=O)N(C)[C@H](C(=O)N(C)C)CC(=O)N(C)[C@@H](CC)C(=O)N[C@@H]([C@@H](C)CC)C(=O)N(C)CC(=O)N(C)[C@H]3C/C=C\CCN(C3=O)[C@@H](Cc3ccc(C(F)(F)F)cc3)C(=O)N(C)CC(=O)N[C@@H](CCc3cc(F)c(C(F)(F)F)c(F)c3)C(=O)N2C1 [PP1277]	A (a compound having 10 or more and less than 20 is denoted as A)	A (a compound having 10 or more and less than 20 is denoted as A)	79.8
CCO[C@@H]1C[C@H]2C(=O)NC3(CCOCC3)C(=O)N(C)[C@@H](C3CCCC3)C(=O)N(C)[C@H](C(=O)N(C)C)CC(=O)N(C)[C@@H](CC)C(=O)N[C@@H]([C@@H](C)CC)C(=O)N(C)CC(=O)N(C)[C@H]3C/C=C\CCN(C3=O)[C@@H](Cc3ccc(C(F)(F)F)cc3)C(=O)N(C)CC(=O)N[C@@H](CCc3cc(F)c(C(F)(F)F)c(F)c3)C(=O)N2C1 [PP1279]	A (a compound having 10 or more and less than 20 is denoted as A)	A (a compound having 10 or more and less than 20 is denoted as A)	72.6
CCO[C@@H]1C[C@H]2C(=O)NC(C)(C)C(=O)N(C)[C@@H](C3CCCC3)C(=O)N(C)[C@H](C(=O)N(C)C)CC(=O)N(C)[C@@H](CC)C(=O)N[C@@H]([C@@H](C)CC)C(=O)N(C)CC(=O)N(C)[C@H]3C/C=C\CCN(C3=O)[C@@H](Cc3ccc(C(F)(F)F)cc3)C(=O)N(C)CC(=O)N[C@@H](CCc3cc(F)c(C(F)(F)F)c(F)c3)C(=O)N2C1 [PP1280]	A (a compound having 10 or more and less than 20 is denoted as A)	A (a compound having 10 or more and less than 20 is denoted as A)	34.4
CCO[C@@H]1C[C@H]2C(=O)NC3(CCC3)C(=O)N(C)[C@@H](C3CCCC3)C(=O)N(C)[C@H](C(=O)N3CCOCC3)CC(=O)N(C)[C@@H](CC(C)C)C(=O)N[C@@H]([C@@H](C)CC)C(=O)N(C)CC(=O)N(C)[C@H]3C/C=C\CCN(C3=O)[C@@H](Cc3ccc(C(F)(F)F)cc3)C(=O)N(C)CC(=O)N[C@@H](CCc3cc(F)c(C(F)(F)F)c(F)c3)C(=O)N2C1 [PP1282]	A (a compound having 10 or more and less than 20 is denoted as A)	A (a compound having 10 or more and less than 20 is denoted as A)	12.3
CCO[C@@H]1C[C@H]2C(=O)NC3(CCC3)C(=O)N(C)[C@@H](C3CCCC3)C(=O)N(C)[C@H](C(=O)N3CCOCC3)CC(=O)N(C)[C@@H](CC3CC3)C(=O)N[C@@H]([C@@H](C)CC)C(=O)N(C)CC(=O)N(C)[C@H]3C/C=C\CCN(C3=O)[C@@H](Cc3ccc(C(F)(F)F)cc3)C(=O)N(C)CC(=O)N[C@@H](CCc3cc(F)c(C(F)(F)F)c(F)c3)C(=O)N2C1 [PP1283]	AA (a compound having 20 or more is denoted as AA)	A (a compound having 10 or more and less than 20 is denoted as A)	42.6
CCO[C@@H]1C[C@H]2C(=O)NC3(CCC3)C(=O)N(C)[C@@H](C3CCCC3)C(=O)N(C)[C@H](C(=O)N3CCOCC3)CC(=O)N(C)[C@@H](C)C(=O)N[C@@H]([C@@H](C)CC)C(=O)N(C)CC(=O)N(C)[C@H]3C/C=C\CCN(C3=O)[C@@H](Cc3ccc(C(F)(F)F)cc3)C(=O)N(C)CC(=O)N[C@@H](CCc3cc(F)c(C(F)(F)F)c(F)c3)C(=O)N2C1 [PP1284]	AA (a compound having 20 or more is denoted as AA)	A (a compound having 10 or more and less than 20 is denoted as A)	54.8
CCO[C@@H]1C[C@H]2C(=O)NC3(CCC3)C(=O)N(C)[C@@H](C3CCCC3)C(=O)N(C)[C@H](C(=O)N3CCOCC3)CC(=O)N(C)[C@@H](CC(F)F)C(=O)N[C@@H]([C@@H](C)CC)C(=O)N(C)CC(=O)N(C)[C@H]3C/C=C\CCN(C3=O)[C@@H](Cc3ccc(C(F)(F)F)cc3)C(=O)N(C)CC(=O)N[C@@H](CCc3cc(F)c(C(F)(F)F)c(F)c3)C(=O)N2C1 [PP1285]	AA (a compound having 20 or more is denoted as AA)	A (a compound having 10 or more and less than 20 is denoted as A)	24.6
CCO[C@@H]1C[C@H]2C(=O)NC3(CCC3)C(=O)N(C)[C@@H](C(CC)CC)C(=O)N(C)[C@H](C(=O)N3CCOCC3)CC(=O)N(C)[C@@H](CC)C(=O)N[C@@H]([C@@H](C)CC)C(=O)N(C)CC(=O)N(C)[C@H]3C/C=C\CCN(C3=O)[C@@H](Cc3ccc(C(F)(F)F)cc3)C(=O)N(C)CC(=O)N[C@@H](CCc3cc(F)c(C(F)(F)F)c(F)c3)C(=O)N2C1 [PP1286]	AA (a compound having 20 or more is denoted as AA)	A (a compound having 10 or more and less than 20 is denoted as A)	58.8
